Assay results taken from ChEMBL document CHEMBL3745637, “New hybrid molecules with anticonvulsant and antinociceptive activity derived from 3-methyl- or 3,3-dimethyl-1-[1-oxo-1-(4-phenylpiperazin-1-yl)propan-2-yl]pyrrolidine-2,5-diones” (Bioorg Med Chem, 2016).
The source made the active and inactive calls. The rule behind the calls is not given here.

Legend:
[1] = Protective index, ratio of TD50 for neurotoxicity in ip dosed Swiss mouse to ED50 for anticonvulsant activity in ip dosed scPTZ Swiss mouse model at 0.25 hrs; type: toxicity, organism-based; details: in vivo, read-out: Ratio TD50/ED50
Mus musculus [2] = experiment: Anticonvulsant activity against ip dosed Swiss mouse seizure model assessed as protection at 0.25 hrs by 6 Hz psychomotor seizure test; type: functional
Mus musculus [3] = experiment: Anticonvulsant activity in ip dosed Swiss mouse assessed as protection against maximal electroshock-induced seizures at 0.25 hrs; type: functional
Mus musculus [4] = experiment: Anticonvulsant activity in Swiss mouse assessed as prolong latency to first seizure episode at 120 mg/kg pretreated for 0.25 hrs measured after 30 mins by subcutaneous pentylenetetrazole seizure test; type: functional, organism-based
Mus musculus [5] = experiment: Anticonvulsant activity against ip dosed Swiss mouse seizure model assessed as protection at 0.5 hrs by 6 Hz psychomotor seizure test; type: functional
Mus musculus [6] = experiment: Anticonvulsant activity in ip dosed Swiss mouse assessed as reduction in clonic seizures at 0.25 hrs by subcutaneous pentylenetetrazole seizure test; type: functional
Mus musculus [7] = experiment: Anticonvulsant activity in Swiss mouse assessed as reduction in clonic seizures at 100 mg/kg, ip pretreated for 1 hr measured after 30 mins by subcutaneous pentylenetetrazole seizure test; type: functional, organism-based
Mus musculus [8] = experiment: Antinociceptive activity in ip dosed Swiss mouse assessed as reduction of formalin-induced licking at MES ED50 pretreated for 0.25 hrs measured during 1 to 5 mins; type: functional; set-up: scale not given: the % may be the effect or the level left
Mus musculus [9] = experiment: Anticonvulsant activity in Swiss mouse assessed as protection against maximal electroshock-induced seizures at 100 mg/kg, ip pretreated for 0.25 hrs; type: functional, organism-based
Mus musculus [10] = experiment: Anticonvulsant activity in ip dosed Swiss mouse assessed as protection against maximal electroshock-induced seizures at 0.5 hrs; type: functional
[11] = Protective index, ratio of TD50 for neurotoxicity in ip dosed Swiss mouse to ED50 for anticonvulsant activity in ip dosed MES Swiss mouse model at 0.5 hrs; type: toxicity, organism-based; details: in vivo, read-out: Ratio TD50/ED50
[12] = Neurotoxicity in ip dosed Swiss mouse seizure model assessed as motor impairment pretreated for 0.25 hrs measured within 60 s by chimney test; type: toxicity, organism-based; details: in vivo
[13] = Protective index, ratio of TD50 for neurotoxicity in ip dosed Swiss mouse to ED50 for anticonvulsant activity in ip dosed Swiss mouse 6 Hz psychomotor seizure model at 0.25 hrs; type: toxicity, organism-based; details: in vivo, read-out: Ratio TD50/ED50
Mus musculus [14] = experiment: Anticonvulsant activity in Swiss mouse assessed as reduction in clonic seizures at 100 mg/kg, ip pretreated for 2 hrs measured after 30 mins by subcutaneous pentylenetetrazole seizure test; type: functional, organism-based
Mus musculus [15] = experiment: Antinociceptive activity in ip dosed Swiss mouse assessed as reduction of formalin-induced licking at MES ED50 pretreated for 0.25 hrs measured during 20 to 25 mins; type: functional; set-up: scale not given: the % may be the effect or the level left
Mus musculus [16] = experiment: Anticonvulsant activity in Swiss mouse assessed as protection against maximal electroshock-induced seizures at 100 mg/kg, ip pretreated for 2 hrs; type: functional, organism-based
Mus musculus [17] = experiment: Anticonvulsant activity against Swiss mouse seizure model assessed as protection at 100 mg/kg, ip pretreated for 0.5 hrs by 6 Hz psychomotor seizure test; type: functional, organism-based
Mus musculus [18] = experiment: Anticonvulsant activity against Swiss mouse seizure model assessed as protection at 100 mg/kg, ip pretreated for 0.25 hrs by 6 Hz psychomotor seizure test; type: functional, organism-based
Mus musculus [19] = experiment: Anticonvulsant activity in ip dosed Swiss mouse assessed as reduction in clonic seizures at 0.5 hrs by subcutaneous pentylenetetrazole seizure test; type: functional
[20] = Protective index, ratio of TD50 for neurotoxicity in ip dosed Swiss mouse to ED50 for anticonvulsant activity in ip dosed Swiss mouse 6 Hz psychomotor seizure model at 0.5 hrs; type: toxicity, organism-based; details: in vivo, read-out: Ratio TD50/ED50
Mus musculus [21] = experiment: Anticonvulsant activity in Swiss mouse assessed as protection against maximal electroshock-induced seizures at 300 mg/kg, ip pretreated for 0.25 hrs; type: functional, organism-based
Mus musculus [22] = experiment: Antinociceptive activity in ip dosed Swiss mouse assessed as reduction of formalin-induced licking at MES ED50 pretreated for 0.25 hrs measured during 15 to 20 mins; type: functional; set-up: scale not given: the % may be the effect or the level left
[23] = Protective index, ratio of TD50 for neurotoxicity in ip dosed Swiss mouse to ED50 for anticonvulsant activity in ip dosed scPTZ Swiss mouse model at 0.5 hrs; type: toxicity, organism-based; details: in vivo, read-out: Ratio TD50/ED50
[24] = Neurotoxicity in ip dosed Swiss mouse seizure model assessed as motor impairment pretreated for 0.5 hrs measured within 60 s by chimney test; type: toxicity, organism-based; details: in vivo
[25] = Protective index, ratio of TD50 for neurotoxicity in ip dosed Swiss mouse to ED50 for anticonvulsant activity in ip dosed MES Swiss mouse model at 0.25 hrs; type: toxicity, organism-based; details: in vivo, read-out: Ratio TD50/ED50
Mus musculus [26] = experiment: Anticonvulsant activity in Swiss mouse assessed as protection against maximal electroshock-induced seizures at 300 mg/kg, ip pretreated for 0.5 hrs; type: functional, organism-based
Mus musculus [27] = experiment: Anticonvulsant activity in ip dosed Swiss mouse assessed as prolong latency to first seizure episode pretreated for 0.25 hrs measured after 30 mins by subcutaneous pentylenetetrazole seizure test; type: functional, organism-based
Mus musculus [28] = experiment: Anticonvulsant activity in ip dosed Swiss mouse assessed as reduction in clonic seizures at 1 hr by subcutaneous pentylenetetrazole seizure test; type: functional
[29] = Neurotoxicity in ip dosed Swiss mouse seizure model assessed as motor impairment pretreated for 1 hr measured within 60 s by chimney test; type: toxicity, organism-based; details: in vivo
Mus musculus [30] = experiment: Anticonvulsant activity in ip dosed Swiss mouse assessed as protection against maximal electroshock-induced seizures at 1 hr; type: functional
[31] = Protective index, ratio of TD50 for neurotoxicity in ip dosed Swiss mouse to ED50 for anticonvulsant activity in ip dosed Swiss mouse 6 Hz psychomotor seizure model at 1 hr; type: toxicity, organism-based; details: in vivo, read-out: Ratio TD50/ED50
Mus musculus [32] = experiment: Anticonvulsant activity in Swiss mouse assessed as prolong latency to first seizure episode at 250 mg/kg pretreated for 0.5 hrs measured after 30 mins by subcutaneous pentylenetetrazole seizure test; type: functional, organism-based
Mus musculus [33] = experiment: Anticonvulsant activity in Swiss mouse assessed as reduction in clonic seizures at 100 mg/kg, ip pretreated for 0.5 hrs measured after 30 mins by subcutaneous pentylenetetrazole seizure test; type: functional, organism-based
Mus musculus [34] = experiment: Anticonvulsant activity in Swiss mouse assessed as protection against maximal electroshock-induced seizures at 300 mg/kg, ip pretreated for 1 hr; type: functional, organism-based
Mus musculus [35] = experiment: Antinociceptive activity in ip dosed Swiss mouse assessed as reduction of formalin-induced licking at MES ED50 pretreated for 0.25 hrs measured during 15 to 30 mins; type: functional, organism-based
Mus musculus [36] = experiment: Antinociceptive activity in ip dosed Swiss mouse assessed as reduction of formalin-induced licking at MES ED50 pretreated for 0.25 hrs measured during 25 to 30 mins; type: functional; set-up: scale not given: the % may be the effect or the level left
Mus musculus [37] = experiment: Anticonvulsant activity in Swiss mouse assessed as protection against maximal electroshock-induced seizures at 300 mg/kg, ip pretreated for 2 hrs; type: functional, organism-based
Mus musculus [38] = experiment: Anticonvulsant activity in Swiss mouse assessed as reduction in clonic seizures at 100 mg/kg, ip pretreated for 0.25 hrs measured after 30 mins by subcutaneous pentylenetetrazole seizure test; type: functional, organism-based

## CCC1(C)CC(=O)NC1=O (stereo unspecified) [ETHOSUXIMIDE]
[1]
  selectivity ratio at 0.25 h: 4.89
Mus musculus [2]
  ED50: > 200 mg/kg
Mus musculus [3]
  ED50: > 500 mg/kg
Mus musculus [4]
  Activity: Active

## CC1CC(=O)N(C(C)C(=O)N2CCN(c3cccc(Cl)c3)CC2)C1=O (stereo unspecified)
Mus musculus [5]
  ED50: 24.4 mg/kg
Mus musculus [6]
  ED50: 114 mg/kg
Mus musculus [7]
  Activity: inactive
Mus musculus [8]
  Activity: 45%
Mus musculus [9]
  Activity: Active
Mus musculus [10]
  ED50: 98.5 mg/kg
[11]
  selectivity ratio at 0.5 h: 2.74
[12]
  TD50 at 0.25 h: 261 mg/kg
[1]
  selectivity ratio at 0.25 h: 2.3
[13]
  selectivity ratio at 0.25 h: 19.2
Mus musculus [2]
  ED50: 13.6 mg/kg
Mus musculus [14]
  Activity: inactive
Mus musculus [15]
  Activity: 88%
Mus musculus [16]
  Activity: inactive
Mus musculus [17]
  Activity: Active
Mus musculus [18]
  Activity: Active
Mus musculus [19]
  ED50: 121 mg/kg
[20]
  selectivity ratio at 0.5 h: 11.1
Mus musculus [21]
  Activity: Active
Mus musculus [22]
  Activity: 74%
[23]
  selectivity ratio at 0.5 h: 2.23
[24]
  TD50 at 0.5 h: 270 mg/kg
[25]
  selectivity ratio at 0.25 h: 2.91
Mus musculus [26]
  Activity: Active
Mus musculus [3]
  ED50: 89.7 mg/kg
Mus musculus [27]
  Activity: Dose-dependent effect

## CC[C@@H](C(N)=O)N1CCCC1=O [LEVETIRACETAM]
Mus musculus [28]
  ED50: > 500 mg/kg
[29]
  TD50 at 1 h: > 500 mg/kg
Mus musculus [30]
  ED50: > 500 mg/kg
[31]
  selectivity ratio at 1 h: > 33.8

## CCCC(CCC)C(=O)O
Mus musculus [32]
  Activity: Active

## CCC(C(=O)N1CCN(c2cccc(C(F)(F)F)c2)CC1)N1C(=O)CC(C)C1=O (stereo unspecified)
Mus musculus [5]
  ED50: 41.2 mg/kg
Mus musculus [6]
  ED50: 108 mg/kg
Mus musculus [7]
  Activity: inactive
Mus musculus [8]
  Activity: inactive
Mus musculus [10]
  ED50: 75.7 mg/kg
[11]
  selectivity ratio at 0.5 h: 2.24
[12]
  TD50 at 0.25 h: 164 mg/kg
[1]
  selectivity ratio at 0.25 h: 1.51
[13]
  selectivity ratio at 0.25 h: 5.42
Mus musculus [2]
  ED50: 30.3 mg/kg
Mus musculus [33]
  Activity: inactive
Mus musculus [14]
  Activity: inactive
Mus musculus [15]
  Activity: 57%
Mus musculus [17]
  Activity: Active
Mus musculus [18]
  Activity: Active
Mus musculus [19]
  ED50: > 130 mg/kg
[20]
  selectivity ratio at 0.5 h: 4.12
Mus musculus [21]
  Activity: Active
Mus musculus [22]
  Activity: 94%
[24]
  TD50 at 0.5 h: 170 mg/kg
[25]
  selectivity ratio at 0.25 h: 2.19
Mus musculus [3]
  ED50: 75.1 mg/kg
Mus musculus [27]
  Activity: Dose-dependent effect

## CC(C(=O)N1CCN(c2cccc(C(F)(F)F)c2)CC1)N1C(=O)CC(C)(C)C1=O (stereo unspecified)
Mus musculus [8]
  Activity: 56%
Mus musculus [9]
  Activity: Active
[12]
  TD50 at 0.25 h: 425 mg/kg
Mus musculus [34]
  Activity: Active
[13]
  selectivity ratio at 0.25 h: 14.7
Mus musculus [2]
  ED50: 29 mg/kg
Mus musculus [35]
  Activity: Active
Mus musculus [36]
  Activity: 98%
Mus musculus [14]
  Activity: inactive
Mus musculus [15]
  Activity: 93%
Mus musculus [16]
  Activity: inactive
Mus musculus [21]
  Activity: Active
Mus musculus [22]
  Activity: 96%
Mus musculus [37]
  Activity: Active
Mus musculus [38]
  Activity: inactive
[25]
  selectivity ratio at 0.25 h: 3.73
Mus musculus [26]
  Activity: Active
Mus musculus [3]
  ED50: 114 mg/kg
